Assay results taken from patent US12291529B2, “Heterocyclic GLP-1 agonists” (Gasherbrum Bio, Inc., priority 2023, dated 2025).
Converted amounts (≈) assume the structure as drawn.

Assays:
GLP-1 Receptor = GLP-1 Receptor (Homo sapiens, UniProt P43220); test: GLP-1R agonist cAMP stimulation assay (HEK293/GLP1R/CRE-LUC cells, Cisbio cAMP dynamic 2 kit); format: cell-based
Method in brief: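 cAMP was measured by HTRF (d2/cryptate, 1 h RT, 665 and 615 nm). Beforehand, compounds in half-log series were incubated 30 min at 37 °C with GLP-1R/CRE-Luc HEK293 cells (1000 per well) in IBMX (0.5 mM)-containing DPBS/BSA. Activity scaled between vehicle and maximal control.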

[1] = Caco-2 permeability / efflux study; format: in vitro ADME; details: human; for efflux ratio at 2 h, 10 μM: Caco-2, pH 7.4, Caco-2 efflux ratio; for Papp at 2 h, 10 μM: Caco-2, pH 7.4, 10 μM, 37° C., pH 7.4, 0.5% BSA, read-out: Caco-2 Perm
Method: (§1) Incubations with Caco-2 cell monolayers were performed in duplicate in a 96-well Transwell plate. Transport buffer solution (HBSS, 10 mM HEPES, pH 7.4, with 0.5% BSA) containing test article (10 μM), and either the control compounds metoprolol (10 μM), cimetidine (10 μM) and erythromycin (10 μM), was added to appropriate donor wells of the apical or basolateral plate. The transport buffer with DMSO was added to appropriate wells of receiver wells. Following incubation at 37° C. for 2 hours, the cell plates were removed and 50 μL samples from both apical and basolateral sides were transferred into new 96-well plates. Subsequently, 200 μL of acetonitrile containing internal standard was added to all samples to precipitate protein prior to analysis by UPLC-MS/MS. Lucifer yellow was used as a marker to confirm the integrity of the cell monolayers after 2 hours incubation.

Caco-2 cell monolayers = test: Caco-2 permeability / efflux study; format: in vitro ADME; details: 10 μM, 2 hours; for Caco-2 Perm: 37° C., pH 7.4, 0.5% BSA
Method: as §1

FaSSIF solubility = format: physicochemical; details: FaSSIF buffer; for solubility at 4 h: 25 °C, fassif, thermodynamic from solid
Method: Stock solution of test article and control compound (chlorpromazine, astemizole, and phenytoin) were prepared in DMSO at 10 mM. 50 μL each of stock solutions were dried down, followed by reconstitution to 1 mM with FaSSIF buffer in the well. The incubation plate was shaked at 25° C., 1,100 rpm for 4 hours. And then, the samples were filtered by using the vacuum manifold. 10 μL aliquots from each well was transferred to a new 96-well plate and adjust the volume to 80 μL with blank buffer. Using a mixture of H2O and acetonitrile containing internal standard (1:1) to dilute the sample 100-fold, 500-fold and 2,500-fold. The samples are evaluated by LC/MS/MS analysis. All compounds were tested in singlet.

[2] = Rat IV/PO PK study, Method A; format: in vivo, male Sprague Dawley (SD) rats; details: for AUC (ng · h/mL)_free form/dose / AUC / Cmax: PO; for AUC (ng · h/mL)_free form/dose: 5 mpk, free form; for half-life / bioavailability / AUC / Cmax: male, Sprague Dawley, plasma; for half-life: 1 mg/kg, elimination half life (IV); for half-life / bioavailability: Method A; for bioavailability: PO vs IV, read-out: Bioavailablility (% F); for AUC / Cmax: 5 mg/kg, *obtained under method 3A
Method: Pharmacokinetics (PK) study was conducted on male Sprague Dawley (SD) rats by two delivery routes intravenous (IV) and/or oral gavage (PO). Rats in IV route (n=3) were free access to food and water. Rats in PO route (n=3) were fasted overnight and fed at 4 hrs post dosing. Test article was formulated in solution (10% solutol HS 15 in saline) for IV route and solution or suspension (10% solutol HS 15 in saline/water) for PO route, respectively. On the day of experiment, test article was administered via vein (e.g. foot dorsal vein) injection (commonly at 1 mg/kg and 5 mL/kg) for IV route or via oral gavage (commonly at 2 or 5 mg/kg and 5 mL/kg) for PO route, respectively. Blood samples were collected via serial bleeding at ˜8 time points from 0.083 to 24 hrs post dose. Approximate 150 μL of blood/time point was collected into K2EDTA tube via tail vein or jugular vein. Blood samples were put on wet ice and centrifuged to obtain plasma samples and plasma samples were submitted to LC-MS/MS for sample analysis. Pharmacokinetics parameters, including elimination half life (t1/2) (IV), area under the curve (AUC) and oral bioavailability (F %), etc. were calculated by non-compartmental model using WinNonlin.

[3] = Rat PO PK study, Method B; format: in vivo, male Sprague Dawley (SD) rats; details: for rat PK exposure compared with C-5 and C-6: 5 to 100 mg/kg; for rat PK dose proportionality of exposure: free form, same formulation; for AUC / Cmax: male, Sprague Dawley, plasma
Method: Pharmacokinetics (PK) study was conducted on male Sprague Dawley (SD) rats by oral gavage (PO). Rats in PO route (n=3) were free access to food and water. […] On the day of experiment, test article was administered via oral gavage (commonly at 10, 30, or 100 mg/kg, with dose volume as 10 mL/kg). Blood samples were collected via serial bleeding at ˜8 time points from 0.25 to 24 hrs post dose. Approximate 150 μL of blood/time point was collected into KzEDTA tube via tail vein or jugular vein. Blood samples were put on wet ice and centrifuged to obtain plasma samples and plasma samples were submitted to LC-MS/MS for sample analysis. Pharmiacokinetics parameters, including Cmax, and area under the curve (AUC), etc. were calculated by non-compartmental model using WinNonlin.

[4] = Table 3, HEK293/GLP1R/CRE-LUC cells, 30 min
[5] = 30 mg/kg, 20% solutol HS 15 in water
[6] = 100 mg/kg, 20% solutol HS 15 in water

Chain of GLP-1 Receptor (P43220 24-463, species assumed): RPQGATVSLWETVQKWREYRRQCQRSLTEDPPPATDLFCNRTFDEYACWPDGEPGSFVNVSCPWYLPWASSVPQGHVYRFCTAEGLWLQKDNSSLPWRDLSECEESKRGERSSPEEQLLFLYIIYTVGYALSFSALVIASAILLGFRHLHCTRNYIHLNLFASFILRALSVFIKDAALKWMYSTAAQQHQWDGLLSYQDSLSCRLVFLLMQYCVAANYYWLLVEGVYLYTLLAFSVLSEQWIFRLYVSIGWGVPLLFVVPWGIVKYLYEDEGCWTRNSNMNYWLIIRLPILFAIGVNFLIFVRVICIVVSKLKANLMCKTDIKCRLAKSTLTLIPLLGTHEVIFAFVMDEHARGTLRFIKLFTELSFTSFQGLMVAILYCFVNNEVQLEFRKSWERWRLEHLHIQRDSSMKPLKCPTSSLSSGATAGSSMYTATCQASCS

Row | SMILES | EC50 (GLP-1 Receptor; [4]) | EC50 (GLP-1 Receptor; Table 4) | efflux ratio at 2 h, 10 μM [1] | Caco-2 Perm (Caco-2 cell monolayers) | solubility at 4 h (FaSSIF solubility) | Papp at 2 h, 10 μM [1] | AUC (ng · h/mL)_free form/dose [2] | half-life [2] | bioavailability [2] | AUC [2] | Cmax [2] | rat PK exposure compared with C-5 and C-6 [3] | rat PK dose proportionality of exposure [3] | AUC [3, 5] | Cmax [3, 5] | AUC [3, 6] | Cmax [3, 6] | further results
1 | Cc1cc(-n2nc3c(c2-n2ccn(-c4ccc(S5(=O)=NCCC5)cc4)c2=O)[C@H](C)N(C(=O)c2cc4cc(C5CCOCC5)ccc4n2[C@@]2(c4noc(=O)[nH]4)C[C@@H]2C)CC3)cc(C)c1F (single isomer, unassigned) [Compound 142] | 45 pM | 63 pM | > 156 | < 0.05 ×10⁻⁶ cm/s | 8.07 µM (≈ 7.15 µg/mL) | – | – | – | – | – | – | – | – | – | – | – | – | –
2 | CN=S(=O)(c1ccc(-n2ccn(-c3c4c(nn3-c3cc(C)c(F)c(C)c3)CCN(C(=O)c3cc5cc([C@H]6CCOC(C)(C)C6)ccc5n3[C@@]3(c5noc(=O)[nH]5)C[C@@H]3C)[C@H]4C)c2=O)c(F)c1NC)C1CC1 (single isomer, unassigned) [Compound 238] | 110 pM | 110 pM | 9.8 | – | 26 µM (≈ 25.4 µg/mL) | 0.19 ×10⁻⁶ cm/s | 4,997/5 mpk ng · h/mL | 4.78 h | 25.5% | 7430 ng·h/mL | 1060 ng/mL | higher exposure than C-5 and C-6 | good rat PK dose proportionality from 5 to 100 mg/kg | 67500 ng·h/mL | 4710 ng/mL | 124000 ng·h/mL | 8680 ng/mL | –
3 | Cc1cc(-n2nc3c(c2-n2ccn(-c4ccc(S5(=O)=NCCC5)cc4)c2=O)[C@H](C)N(C(=O)c2cc4cc(C5CCOCC5)ccc4n2[C@@]2(c4noc(=O)[nH]4)C[C@@H]2C)CC3)cc(C)c1F (single isomer, unassigned) [Compound 143] | 19 pM | 19 pM | – | 0.12 ×10⁻⁶ cm/s | – | – | – | – | – | – | – | – | – | – | – | – | – | Efflux (Caco-2 cell monolayers; Caco-2 efflux ratio): 99.3; Solubility (FaSSIF, μM) (FaSSIF solubility; 25° C., 4 hours): 4.98 µM (≈ 4.41 µg/mL)
4 | CCS(=O)(=NC)c1ccc(-n2ccn(-c3c4c(nn3-c3cc(C)c(F)c(C)c3)CCN(C(=O)c3cc5cc([C@H]6CCOC(C)(C)C6)ccc5n3[C@@]3(c5noc(=O)[nH]5)C[C@@H]3C)[C@H]4C)c2=O)c(F)c1 (single isomer, unassigned) [Compound 164] | 24 pM | 24 pM | 5.5 | – | 8.9 µM (≈ 8.31 µg/mL) | 0.62 ×10⁻⁶ cm/s | 6,094/5 mpk ng · h/mL | 2.4 h | 29.4% | 9540 ng·h/mL | 1880 ng/mL | higher exposure than C-5 and C-6 | good rat PK dose proportionality from 5 to 100 mg/kg | 66200 ng·h/mL | 5400 ng/mL | 173000 ng·h/mL | 11200 ng/mL | –
5 | CN=S(=O)(c1ccc(-n2ccn(-c3c4c(nn3-c3cc(C)c(F)c(C)c3)CCN(C(=O)c3cc5cc([C@H]6CCOC(C)(C)C6)ccc5n3[C@@]3(c5noc(=O)[nH]5)C[C@@H]3C)[C@H]4C)c2=O)c(F)c1)C1CC1 (single isomer, unassigned) [Compound 180] | 34 pM | 30 pM | 5.4 | – | 30 µM (≈ 28.4 µg/mL) | 0.61 ×10⁻⁶ cm/s | 4,954/5 mpk ng · h/mL | 3 h | 28% | 6100 ng·h/mL | 1790 ng/mL | higher exposure than C-5 and C-6 | good rat PK dose proportionality from 5 to 100 mg/kg | – | – | – | – | AUC ([3]; 30 mg/kg, 10% solutol HS 15): 97000 ng·h/mL; Cmax ([3]; 30 mg/kg, 10% solutol HS 15): 8340 ng/mL; AUC ([3]; 100 mg/kg, 10% solutol HS 15): 167000 ng·h/mL; Cmax ([3]; 100 mg/kg, 10% solutol HS 15): 13300 ng/mL
